Laboratory results published in patent publication EP0266828B1, “Control of biofouling with certain alkylthioalkylamines” (THE DOW CHEMICAL COMPANY, priority 1986, dated 1988).
Converted amounts (≈) assume the structure as drawn. Where two headings read alike, the source gives them in different places.

Assays:
Enterobacter aerogenes = assay: Minimum inhibitory concentration (MIC) procedure in agar at alkaline pH; assay type: cell-based; conditions: Klebsiella aerogenes; pH 8.2; 48 hours at 30°C; no high water hardness; unit ppm only from method
Description: The agar (nutrient agar) was dispensed in 30 ml aliquots into 25 x 200 millimeter (mm) test tubes, capped and autoclaved for 15 minutes at 115°C. The test tubes containing the agar were cooled in a water bath until the temperature of the agar was 48°C and then an appropriate amount of the one percent solution of the test compound was added (except in the controls where no test compound was added) to the respective test tubes so that final concentrations of 500, 250, 100, 50, 25, 10, 5, 2.5, 1.0 and 0 parts per million (ppm) of the test compound in the agar were obtained. The afar solutions were each mixed and poured into individual petri plates so that each petri plate contained agar having a known concentration of test compound dispersed therein. After drying for 24 hours, the petri plates were inoculated with bacteria. The inoculation with bacteria was accomplished using the following procedure. Twenty-four hour cultures of the bacteria were prepared by incubating the bacteria in tubes containing nutrient broth for 24 hours at 30°C in a shaker. Dilutions of the 24 hour culture were made so that a suspension was made, containing about 10⁸ colony forming units (CFU) per ml of suspension of bacteria. Aliquots of 0.3 ml of the above suspension were used to fill individual wells of a Steer's Replicator. The Steer's Replicator was then used to inoculate the petri plates. The petri plates were incubated at 30°C for 48 hours and then read to determine if the test compound which was incorporated into the agar prevented growth of the respective bacteria. The minimum inhibitory concentration (MIC) for each bacteria was defined as the lowest concentration of the test compound which prevented growth of that bacteria. The MIC procedure substantially as described in Example 1 was performed. High water hardness was not evaluated in this study.

algae = assay: Cooling tower trial versus duplicate tower without biocide; conditions: 15 ppm added twice a week to recirculating water; pH of 8.5; hardness of 900 ppm; two week period
Excerpt: In comparison, the tower without any added biocide became heavily fouled with algae in the same two week period of time.

Aspergillus niger = assay: Kill time procedure against fungus, malt yeast agar; assay type: cell-based; conditions: pH of 8.2 to 8.3, read-out: Ppm of Compound that Resulted in Kill of All Cells at Various Times
Description: (§1) Nutrient broth containing 300 ppm total organic carbon (TOC) and 800 ppm total dissolved solids (TDS), was adjusted to pH 8.5 with NaOH and dispensed in 10 ml aliquots into 18 x 150 mm test tubes. These tubes were capped and autoclaved for 15 minutes at 121°C. Immediately before use, 50 microliters (µl) of a heat sterilized solution of 31.74 g/l MgCl₂ and 73.99 g/l CaCl₂ was added to tubes designated to contain 500 ppm hardness. The tubes with and without added hardness were readjusted to pH 8.5 by addition of appropriate amounts of a filter sterilized solution of 16.8 g/l NaHCO. One hundred and eighty and 125 µl of the NaHCO solution were added, respectively, to tubes with and without added hardness to achieve a pH of 8.5.
(§2) Unless otherwise indicated, Enterobacter aerogenes, ATCC #13048, was used as the test organism. Three 0.1 ml aliquots of a 24 hour nutrient broth culture were pipetted onto three nutrient agar plates and spread uniformly with a Petri dish spreader. After 24 hours' growth, the cells were scraped and washed off the agar surface with sterile glass rods (hockey sticks) and sterile saline solution. After vigorous mixing (vortexing) to break up clumps, the cell suspension was filtered through a sterile filter (Whatman #4) to remove residual clumps. […] Solutions with this optical density, when diluted 1:100, contained approximately 10¹⁰ CFU/ml when plated on standard nutrient agar. The exact number of organisms was determined by making serial dilutions of the cell suspension and plating them on nutrient agar plates. Each of the serial dilution tubes was also streaked on a nutrient agar plate. These streaks of known concentrations of organisms were then used as controls to determine the number of organisms in the test samples.
(§3) Just prior to the addition of the test compounds, 0.1 ml of the cell suspension containing approximately 10¹⁰ cells/ml was added to the prepared broth tubes. Solutions of 0.1 percent weight/weight (w/w) of experimental compound were prepared immediately before use. Appropriate amounts of these solutions were added to achieve final concentrations of 100, 50, 25, 10, 5 ppm of active ingredient in broth tubes both with and/or without hardness. The tubes were then incubated at 30°C. After three and/or 24 hours, dilutions of the broth tubes were made by addition of 0.1 ml of the broth into 9.9 ml of 0.85 percent saline containing 100 ppm NaHSO₃. From the saline tube the samples were streaked with cotton swabs onto nutrient agar plates which also contained 100 ppm NaHSO₃.
(§4) The plates were incubated for 24 hours and then read. The number of organisms present in the broth tubes was determined by comparing these plates to the control plates of the serial dilution tubes.
The kill time procedure substantially as described in Example 2 was performed using Aspergillus niger at a pH of 8.2 to 8.3. Malt yeast agar was used instead of nutrient agar and the incubation times were extended to accommodate the slower growing fungi cells.

[1] = system: Enterobacter aerogenes, ATCC #13048; assay: Kill time evaluation (concentration that kills all cells); assay type: cell-based; conditions: Klebsiella aerogenes, ATCC13048
Description: Hard water was prepared by sterilizing deionized water and adjusted to 500 ppm hardness and 100 ppm alkalinity by addition of 16.7 ml of sterile CaCl₂·2H₂O (36.8 g/l), 16.7 ml of sterile MgSO₄·7H₂O (12 g/l), and 5 ml of sterile NaHCO₃ (16.8 g/l) to 1 liter of water. The pH was adjusted by addition of diluted NaOH or acetic acid.
as §1, §2, §3, §4
Dilute (1/10) nutrient broth was prepared according to standard methods known in the art and then adjusted to a variety of pH's by the addition of NaOH and HCl. The Kill Time Procedure substantially similar to that described in Example 2 was performed. High water hardness was not evaluated in this study.
The Kill Time Evaluation substantially similar to that described in Example 2 was performed.

[2] = 3 hr, pH 8.5, hardness 500 ppm CaCo3, read-out: Ppm of the Compound that Kill all Cells
[3] = 24 hr, pH 8.5, hardness 500 ppm CaCo3, read-out: Ppm of the Compound that Kill all Cells

Structure (SMILES) | MIC (Enterobacter aerogenes) | MBC [1, 2] | MBC [1, 3] | other results
CCCCCCCCCCSCCN [n-decylthioethylamine] | 10 to 25 µg/mL (≈ 46 to 115 µM) | 20 µg/mL (≈ 92 µM) | 40 µg/mL (≈ 184 µM) | growth of algae in the treated tower or basin (algae): prevent the growth of any algae; MFC (Aspergillus niger; pH 8.2, 3 hr.): 3.5 µg/mL (≈ 16.1 µM); MFC (Aspergillus niger; pH 8.2, 6 hr.): 0.5 to 3.5 µg/mL (≈ 2.3 to 16.1 µM); MFC (Aspergillus niger; pH 8.2, 24 hr.): 0.1 µg/mL (≈ 0.46 µM); MBC ([1]; pH 5, 3 hours, dilute (1/10) nutrient broth, no high water hardness, read-out: Concentration (ppm) of DTEA That Kills all Cells in 3 Hours): 50 µg/mL (≈ 230 µM); MBC ([1]; pH 6, 3 hours, dilute (1/10) nutrient broth, no high water hardness, read-out: Concentration (ppm) of DTEA That Kills all Cells in 3 Hours): 50 µg/mL (≈ 230 µM); MBC ([1]; pH 7, 3 hours, dilute (1/10) nutrient broth, no high water hardness, read-out: Concentration (ppm) of DTEA That Kills all Cells in 3 Hours): 20 µg/mL (≈ 92 µM); MBC ([1]; pH 8, 3 hours, dilute (1/10) nutrient broth, no high water hardness, read-out: Concentration (ppm) of DTEA That Kills all Cells in 3 Hours): 10 µg/mL (≈ 46 µM); MBC ([1]; pH 9, 3 hours, dilute (1/10) nutrient broth, no high water hardness, read-out: Concentration (ppm) of DTEA That Kills all Cells in 3 Hours): 5 µg/mL (≈ 23 µM); MBC ([1]; pH 10, 3 hours, dilute (1/10) nutrient broth, no high water hardness, read-out: Concentration (ppm) of DTEA That Kills all Cells in 3 Hours): ≤ 5 µg/mL; MBC ([1]; pH 11, 3 hours, dilute (1/10) nutrient broth, no high water hardness, read-out: Concentration (ppm) of DTEA That Kills all Cells in 3 Hours): ≤ 5 µg/mL; MBC ([1]; pH 12, 3 hours, dilute (1/10) nutrient broth, no high water hardness, read-out: Concentration (ppm) of DTEA That Kills all Cells in 3 Hours): ≤ 5 µg/mL
CCCCCCCCCCCCSCCN [n-dodecylthioethylamine] | 50 to 100 µg/mL (≈ 204 to 407 µM) | 50 µg/mL (≈ 204 µM) | 150 µg/mL (≈ 611 µM) | 
CCCCCCSCCN [n-hexylthioethylamine] | 250 to 500 µg/mL (≈ 1550 to 3100 µM) | 500 µg/mL (≈ 3100 µM) | 250 µg/mL (≈ 1550 µM) | 
CCCCCCCCCSCCN [n-nonylthioethylamine] | 25 µg/mL (≈ 123 µM) |  |  | 
CCCCCCCCSCCN [n-octylthioethylamine] | 25 µg/mL (≈ 132 µM) | 150 µg/mL (≈ 792 µM) | 75 µg/mL (≈ 396 µM) | MFC (Aspergillus niger; pH 8.2, 3 hr.): 50 µg/mL (≈ 264 µM); MFC (Aspergillus niger; pH 8.2, 6 hr.): 25 µg/mL (≈ 132 µM); MFC (Aspergillus niger; pH 8.2, 24 hr.): 10 µg/mL (≈ 52.8 µM)
CCCCCCCCCCCCCCSCCN [n-tetradecylthioethylamine] | > 500 µg/mL | > 500 µg/mL | > 500 µg/mL | 
CCCCCCCCCCCSCCN [n-undecylthioethylamine] | 50 µg/mL (≈ 216 µM) |  |  | 
